Source: ChEMBL document CHEMBL2434959, “Identification and characterization of novel indole based small molecules as anticancer agents through SIRT1 inhibition” (Eur J Med Chem, 2013)
Activity calls are given as the source filed them. No cut-off for these calls is given here.

How the values were obtained:
[1] = Lipophilicity, log P of the compound; assay type: physicochemical; settings: octanol/water
MDA-MB-231 = assay: Growth inhibition of human MDA-MB-231 cells at 10 uM after 24 hrs by MTT assay; assay type: functional; settings: MDA-MB-231, 24 h, read-out: GI
K562 = assay: Growth inhibition of human K562 cells at 10 uM after 24 hrs by MTT assay; assay type: functional; settings: K562, 24 h, read-out: GI
Rattus norvegicus [2] = assay: Inhibition of testosterone propionate-induced prostate hyperplasia in Wistar rat assessed as reduction in SIRT1 mRNA level in prostate tissue at 10 mg/kg, ip co-administered with testosterone propionate for 14 days by RT-PCR analysis; assay type: functional, organism-based; parameters: dose 10 mg/kg; settings: Prostate gland
Rattus norvegicus [3] = assay: Inhibition of testosterone propionate-induced prostate hyperplasia in Wistar rat assessed as retention of normal cell morphology at 10 mg/kg, ip co-administered with testosterone propionate for 14 days by hematoxylin/eosin staining method; assay type: functional, organism-based; parameters: dose 10 mg/kg
Rattus norvegicus [4] = assay: Inhibition of testosterone propionate-induced prostate hyperplasia in Wistar rat assessed as reduction in histoarchitecture disruption at 10 mg/kg, ip co-administered with testosterone propionate for 14 days by hematoxylin/eosin staining method; assay type: functional, organism-based; parameters: dose 10 mg/kg; settings: Prostate gland
Rattus norvegicus [5] = assay: Inhibition of testosterone propionate-induced prostate hyperplasia in Wistar rat at 10 mg/kg, ip co-administered with testosterone propionate for 14 days; assay type: functional; settings: Prostate gland, 336 h, route intraperitoneal
Rattus norvegicus [6] = assay: Inhibition of testosterone propionate-induced prostate hyperplasia in Wistar rat assessed as ratio of prostate weight to body weight at 10 mg/kg, ip co-administered with testosterone propionate for 14 days (reference value: 3.1634 +/- 0.1264 no unit); assay type: functional, Prostate gland; settings: route intraperitoneal
Rattus norvegicus [7] = assay: Inhibition of testosterone propionate-induced prostate hyperplasia in Wistar rat assessed as seminal vesicle weight at 10 mg/kg, ip co-administered with testosterone propionate for 14 days (reference value: 1.6071 +/- 0.0821 g); assay type: functional, Prostate gland; settings: route intraperitoneal
Rattus norvegicus [8] = assay: Inhibition of testosterone propionate-induced prostate hyperplasia in Wistar rat assessed as prostate weight at 10 mg/kg, ip co-administered with testosterone propionate for 14 days (reference value: 0.838 +/- 0.0293 g); assay type: functional, Prostate gland; settings: route intraperitoneal
[9] = target: T1, NAD-dependent protein deacetylase sirtuin-1 (Homo sapiens) (UniProt Q96EB6); assay: Inhibition of recombinant human SIRT1 using AMC-Arg-His-Lys-Lys(Ac) as substrate at 40 uM after 45 mins by fluorimetric assay
T1 sequence (whole entry): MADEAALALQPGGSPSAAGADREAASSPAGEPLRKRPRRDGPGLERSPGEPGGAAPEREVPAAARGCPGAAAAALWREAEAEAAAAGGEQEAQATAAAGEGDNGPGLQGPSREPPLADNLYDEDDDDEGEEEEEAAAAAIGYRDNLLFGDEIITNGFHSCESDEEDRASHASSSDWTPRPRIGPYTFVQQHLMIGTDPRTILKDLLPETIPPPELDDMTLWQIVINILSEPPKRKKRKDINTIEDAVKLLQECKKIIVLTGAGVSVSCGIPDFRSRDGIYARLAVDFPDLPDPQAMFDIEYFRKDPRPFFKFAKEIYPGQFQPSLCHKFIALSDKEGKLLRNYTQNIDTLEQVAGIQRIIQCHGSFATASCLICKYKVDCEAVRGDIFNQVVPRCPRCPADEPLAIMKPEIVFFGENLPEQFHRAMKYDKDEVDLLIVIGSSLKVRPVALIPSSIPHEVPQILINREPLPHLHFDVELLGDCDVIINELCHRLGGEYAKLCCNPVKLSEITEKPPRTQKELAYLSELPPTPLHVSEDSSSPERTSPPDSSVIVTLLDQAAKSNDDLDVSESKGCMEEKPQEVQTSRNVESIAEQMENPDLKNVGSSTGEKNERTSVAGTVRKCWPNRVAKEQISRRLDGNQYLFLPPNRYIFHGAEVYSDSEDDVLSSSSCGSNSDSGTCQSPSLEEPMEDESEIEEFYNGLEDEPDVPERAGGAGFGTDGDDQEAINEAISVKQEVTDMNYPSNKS

LNCaP = assay: Growth inhibition of human LNCAP cells at 10 uM after 24 hrs by MTT assay; assay type: functional; settings: read-out: GI
Rattus norvegicus [10] = assay: Inhibition of testosterone propionate-induced prostate hyperplasia in Wistar rat assessed as retention of normal cell morphology at 5 mg/kg, ip co-administered with testosterone propionate for 14 days by hematoxylin/eosin staining method; assay type: functional, organism-based; parameters: dose 5 mg/kg
Rattus norvegicus [11] = assay: Inhibition of testosterone propionate-induced prostate hyperplasia in Wistar rat assessed as reduction in histoarchitecture disruption at 5 mg/kg, ip co-administered with testosterone propionate for 14 days by hematoxylin/eosin staining method; assay type: functional, organism-based; parameters: dose 5 mg/kg; settings: Prostate gland
Rattus norvegicus [12] = assay: Inhibition of testosterone propionate-induced prostate hyperplasia in Wistar rat assessed as seminal vesicle weight at 5 mg/kg, ip co-administered with testosterone propionate for 14 days (reference value: 1.6071 +/- 0.0821 g); assay type: functional, Prostate gland; settings: route intraperitoneal
Rattus norvegicus [13] = assay: Inhibition of testosterone propionate-induced prostate hyperplasia in Wistar rat assessed as ratio of prostate weight to body weight at 5 mg/kg, ip co-administered with testosterone propionate for 14 days (reference value: 3.1634 +/- 0.1264 no unit); assay type: functional, Prostate gland; settings: route intraperitoneal
Rattus norvegicus [14] = assay: Inhibition of testosterone propionate-induced prostate hyperplasia in Wistar rat assessed as prostate weight at 5 mg/kg, ip co-administered with testosterone propionate for 14 days (reference value: 0.838 +/- 0.0293 g); assay type: functional, Prostate gland; settings: route intraperitoneal

| SMILES | logP [1] | inhibition of growth at 10 µM (MDA-MB-231) | also measured |
| --- | --- | --- | --- |
| CC(C)Sc1nnc(-c2c(CNCC3CC3)c3cc(F)ccc3n2C)n1-c1ccccc1 | 5.4 | > 50% | inhibition of growth at 10 µM (K562): > 50% |
| CC1CCN(Cc2c(-c3nnc(SC(C)C)n3-c3ccccc3)n(C)c3ccccc23)CC1 | 5.96 |  | inhibition of growth at 10 µM (K562): 88% |
| CC(C)Sc1nnc(-c2c(CNCCN3CCOCC3)c3cc(F)ccc3n2C)n1-c1ccccc1 | 4.28 |  |  |
| CC(C)Sc1nnc(-c2c(CNC3CC3)c3cc(F)ccc3n2C)n1-c1ccccc1 | 4.97 | > 50% | inhibition of growth at 10 µM (K562): > 50% |
| CC(C)Sc1nnc(-c2c(CN3CCOCC3)c3ccccc3n2C)n1-c1ccccc1 | 4.5 |  |  |
| COc1ccc(CNCc2c(-c3nnc(SC(C)C)n3-c3ccccc3)n(C)c3ccc(F)cc23)cc1 | 6.42 | > 50% | inhibition (Rattus norvegicus [2]): Active; inhibition (Rattus norvegicus [3]): Active; inhibition (Rattus norvegicus [4]): Active; inhibition in vivo at 10 mg/kg (Rattus norvegicus [5]): 70.5%; Ratio (Rattus norvegicus [6]): 0.002298; Activity (Rattus norvegicus [7]): 0.619 g; Activity (Rattus norvegicus [8]): 0.537 g; inhibition [9]: 70%; inhibition of growth at 10 µM (LNCaP): > 50% |
| CC(C)Sc1nnc(-c2c(CNCCN3CCCC3)c3cc(F)ccc3n2C)n1-c1ccccc1 | 4.99 |  |  |
| CC1CN(Cc2c(-c3nnc(SC(C)C)n3-c3ccccc3)n(C)c3ccccc23)CC(C)O1 (stereo not given) | 5.13 |  |  |
| CC(C)Sc1nnc(-c2c(CNc3cnccn3)c3ccccc3n2C)n1-c1ccccc1 | 4.22 |  |  |
| COc1cccc(CNCc2c(-c3nnc(SC(C)C)n3-c3ccccc3)n(C)c3ccc(F)cc23)c1 | 6.42 | > 50% |  |
| CC(C)Sc1nnc(-c2c(CNCCN3CCCC3)c3ccccc3n2C)n1-c1ccccc1 | 4.83 |  |  |
| CC1CCN(Cc2c(-c3nnc(SC(C)C)n3-c3ccccc3)n(C)c3ccc(F)cc23)CC1 | 6.12 | > 50% | inhibition of growth at 10 µM (LNCaP): > 50% |
| COCCNCc1c(-c2nnc(SC(C)C)n2-c2ccccc2)n(C)c2ccc(F)cc12 | 4.52 |  | inhibition of growth at 10 µM (LNCaP): > 50% |
| CC(C)Sc1nnc(-c2c(CNCCCN3CCOCC3)c3ccccc3n2C)n1-c1ccccc1 | 4.22 |  |  |
| CC(C)Sc1nnc(-c2c(CNCCN3CCOCC3)c3ccccc3n2C)n1-c1ccccc1 | 4.12 |  |  |
| CC(C)Sc1nnc(-c2c(CNC3CC3)c3ccccc3n2C)n1-c1ccccc1 | 4.81 |  |  |
| CC(C)(C)NC(=O)[C@H]1CC[C@H]2[C@@H]3CC[C@H]4NC(=O)C=C[C@]4(C)[C@H]3CC[C@]12C [FINASTERIDE] |  |  | inhibition (Rattus norvegicus [10]): Active; inhibition (Rattus norvegicus [11]): Active; Activity (Rattus norvegicus [12]): 0.9051 g; Ratio (Rattus norvegicus [13]): 0.002471; Activity (Rattus norvegicus [14]): 0.556 g |
| COc1ccc(CNCc2c(-c3nnc(SC(C)C)n3-c3ccccc3)n(C)c3ccccc23)cc1 | 6.27 | > 50% |  |
| CC1CCCN(Cc2c(-c3nnc(SC(C)C)n3-c3ccccc3)n(C)c3ccc(F)cc23)C1 (stereo not given) | 6.18 | > 50% |  |
| CC(C)Sc1nnc(-c2c(CN3CCC(N4CCCC4)CC3)c3ccccc3n2C)n1-c1ccccc1 | 5.16 |  |  |
| CC(C)Sc1nnc(-c2c(CN3CCCCC3C)c3ccccc3n2C)n1-c1ccccc1 (stereo not given) | 5.95 |  |  |
| CC(C)Sc1nnc(-c2c(CN3CCOCC3)c3cc(F)ccc3n2C)n1-c1ccccc1 | 4.65 |  | inhibition of growth at 10 µM (K562): 88% |
| CC1CCCN(Cc2c(-c3nnc(SC(C)C)n3-c3ccccc3)n(C)c3ccccc23)C1 (stereo not given) | 6.03 | > 50% |  |
| CC(C)Sc1nnc(-c2c(CNc3nc4ccccc4[nH]3)c3ccccc3n2C)n1-c1ccccc1 | 5.94 |  |  |
| COc1cccc(CNCc2c(-c3nnc(SC(C)C)n3-c3ccccc3)n(C)c3ccccc23)c1 | 6.27 | > 50% |  |
| CC(C)Sc1nnc(-c2c(CNCCCN3CCOCC3)c3cc(F)ccc3n2C)n1-c1ccccc1 | 4.38 |  |  |
| CC(C)Sc1nnc(-c2c(CNCC3CC3)c3ccccc3n2C)n1-c1ccccc1 | 5.24 |  | inhibition of growth at 10 µM (K562): > 50% |
| COc1cc(NCc2c(-c3nnc(SC(C)C)n3-c3ccccc3)n(C)c3ccc(F)cc23)cc(OC)c1OC | 5.96 |  | inhibition of growth at 10 µM (K562): > 50% |
| COCCNCc1c(-c2nnc(SC(C)C)n2-c2ccccc2)n(C)c2ccccc12 | 4.36 |  |  |
| COc1cc(NCc2c(-c3nnc(SC(C)C)n3-c3ccccc3)n(C)c3ccccc23)cc(OC)c1OC | 5.8 |  |  |
